Here are results for one molecule from US20170283404A1, “CRYSTALLINE FORMS OF 2-(4-(4-ETHOXY-6-OXO-1,6-DIHYDROPYRIDIN-3-YL)-2-FLUOROPHENYL)-N-(5-(1,1,1-TRIFLUORO-2-METHYLPROPAN-2-YL)ISOXAZOL-3-YL)ACETAMIDE” (GLAXOSMITHKLINE INTELLECTUAL PROPERTY DEVELOPMENT LIMITED, priority 2014, published 2017).

Each structure is given as a SMILES string.

This series in a line: Drying of crystalline form in vacuum oven (solid-state stability). The settings on record: vacuum oven at 50° C. with a nitrogen bleed for about 17 hours. It counts as physicochemical.

`CCOc1cc(=O)[nH]cc1-c1ccc(CC(=O)Nc2cc(C(C)(C)C(F)(F)F)on2)c(F)c1` [Compound A—Monohydrate, 2-(4-(4-ethoxy-6-oxo-1,6-dihydropyridin-3-yl)-2-fluorophenyl)-N-(5-(1,1,1-trifluoro-2-methylpropan-2-yl)isoxazol-3-yl)acetamide]: the “change in form by Raman or XRPD after drying” value is on record as “no change in form” and the “change to the water content by TGA after drying” value is “no change to the water content”.
